Measured values reported in patent publication US8404696B2, “Quinazoline-2,4-dione derivative, and medical compositions for the prophylaxis and treatment of cranial nerve disease containing the same” (Shin Poong Pharmaceutical Co., Ltd., priority 2008, dated 2013).
In brackets after ≈: the same amount, converted by molar mass.

Assays:
[1] = tested on: middle cerebral artery occlusion (MCAO) model; assay: Anti-stroke effect in middle cerebral artery occlusion (MCAO) model, oral administration before inducing stroke; type: in vivo, rats of SD species; conditions: 100 mg/kg po; for Infarcted volume (Mean ± standard deviation): negative control 0.45 ± 0.03
[2] = tested on: mixed culture of nerve cells-glial cells; assay: Protecting effect on NMDA-induced nerve cell death (LDH release); type: cell-based, ICR mouse; conditions: 100 μM NMDA, LDH release after 24 hours
Procedure, shortened: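 Embryonic day-14 ICR mouse cortical neurons seeded on cortical glia, Ara-C-treated, then exposed at day 12–15 for 20 min to 100 μM NMDA with compound at 1 or 2 μg/mL. LDH released 24 h later measured colorimetrically as a cell-death index.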

SH-SY5Y cells = assay: Inhibitory effect on ZnSO4-mediated cytotoxicity (MTT assay); type: cell-based, humans; conditions: compound 50 μg/ml; 600 μM zinc sulfate, 24 hours
Experimental: SH-SY5Y cells were cultured with 3×10^4 cell concentration in 96 well plates, and the compound (50 μg/ml) was treated. After 30 minutes, 600 μM of zinc sulfate was treated to induce toxicity for 24 hours and survival rate of cells was measured by MTT assay.

mouse brain cells = assay: Inhibitory effect on ROS production in brain cells (DCF-DA, NMDA-induced); type: cell-based
[3] = tested on: pentylentetrazole (PTZ)-induced convulsion; assay: Anti-convulsant effect, pentylentetrazole (PTZ) test; type: in vivo; conditions: 10 mg/kg intraperitoneally, PTZ 80 mg/kg subcutaneously
Procedure, shortened: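 Compound was given intraperitoneally at 10 mg/kg before PTZ challenge. The read-outs were time to convulsion onset, time until convulsions fully disappeared, and mortality.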

thoracic aorta of rats = assay: Relaxing effect on thoracic aorta contracted by phenylephrine (organ bath); design: species or system rats of SD species; conditions: for Relaxation percentage (Mean ± standard deviation): n = 3
Procedure, shortened: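 Thoracic aortic rings (2 mm) from ether-anesthetized male SD rats (250-300 g) were mounted in Krebs buffer gassed with 95% O2/5% CO2 and equilibrated at 1.0 g basal tension for 90 min. After stable contraction with phenylephrine (0.5 μM), compounds were added and relaxation recorded.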

[4] = treatment time 0 (right before inducing ischemic stroke)
[5] = treatment time 1 (an hour before inducing ischemic stroke)

CC(=O)N(CCCCNCCCn1c(=O)[nH]c2ccccc2c1=O)CCCn1c(=O)[nH]c2ccccc2c1=O [Compound 3, N-[3-(2,4-dioxo-1,4-dihydro-2H-quinazolin-3-yl)propyl]-N-{4-[3-(2,4-dioxo-1,4-dihydro-2H-quinazolin-3-yl)propylamino]butyl}acetamide]
Inhibitory percentage compared to negative control [1, 4]: 69.8% | Infarcted volume (Mean ± standard deviation) [1, 4]: 0.14 ± 0.02 cm^3 | Inhibitory percentage compared to negative control [1, 5]: 22.3% | Infarcted volume (Mean ± standard deviation) [1, 5]: 0.35 ± 0.07 cm^3 | Inhibitory effect of cell death by NMDA-induced excitable neurotoxicity ([2]; 1 μg/ml compound): 45.5% | Inhibitory effect of cell death by NMDA-induced excitable neurotoxicity ([2]; 2 μg/ml compound): 54.4% | inhibitory percentage, zinc-induced toxicity (SH-SY5Y cells): 17.6 ± 3.5% | Suppression of oxidative stress induced by NMDA (DCF fluorescence) (mouse brain cells; 125 μg/ml and 250 μg/ml, 300 μM NMDA, 24 hours, FIG. 2): suppressed the oxidative stress induced by NMDA of nerve cells in a dose-dependent manner | IC50 (mouse brain cells; 24 h, dose suppressing 50% of production of reactive oxygen compared to control, mouse brain cells, read-out: ROS inhibitory effect ID50): 108 ± 27.2 µg/mL (≈ 203 µM) | mortality rate ([3]; (animals/total), negative control 70(17/23)): 17(2/12) % | Induction percentage of convulsion ([3]; (animals/total), negative control 100(23/23)): 50(6/12) % | Initiation time of convulsion ([3]; negative control 5.0 ± 0.7): 34.7 ± 7.7 min | Duration of convulsion ([3]; negative control 46.7 ± 3.3): 11.8 ± 5.6 min | Relaxation percentage (Mean ± standard deviation) (thoracic aorta of rats; 50 μg/mL, phenylephrine 0.5 μM): 16.2 ± 4.4% | Relaxation percentage (Mean ± standard deviation) (thoracic aorta of rats; 100 μg/mL, phenylephrine 0.5 μM): 44.2 ± 8.5% | Relaxation percentage (Mean ± standard deviation) (thoracic aorta of rats; 200 μg/mL, phenylephrine 0.5 μM): 65.6 ± 7.1% | Relaxation of thoracic aorta contracted by phenylephrine, dose dependence (thoracic aorta of rats; 50, 100 and 200 μg/mL): dose-dependently relaxed the thoracic aorta of rats contracted by phenylephrine | inhibition at 67 µg/mL (thoracic aorta of rats; Rattus norvegicus, 67 μg/mL, phenylephrine 0.5 μM, mean n = 3, read-out: Relaxation percentage): 27.4%
